The values below come from ChEMBL document CHEMBL1201862, “PubChem BioAssay data set” (2004).

Each structure is given as a SMILES string. The source made the active and inactive calls. Where only a bound is given, the exact number is not on record here.

Test [1] is described as follows: ZM109 Env clade C HIV-1 fusion inhibitors, dose response, HeLa effector, CEM target cells, luciferase, cherry-pick (AID 652058). Format: functional, cell-based.
Test [2] addresses 5-hydroxytryptamine receptor 5A (Homo sapiens, UniProt P47898). The test is described as follows: Counterscreen for agonists of OPRM1-OPRD1 heterodimerization: luminescence-based cell-based high throughput dose response assay to identify agonists of 5-hydroxytryptamine (serotonin) 5A receptor (HTR5A). [Related pubchem assays (depositor defined):AID504326, AID504355, AID504692, AID504904, AID504905]. It is filed as functional. On the technique in general: Counterscreens check selectivity or assay interference.

Test [3] can be described thus: off-target signal loss in HeLa-CEM21 co-culture – HeLa F-luc CTL cells, cherry-picked, counter-screen for HIV-1 Env fusion inhibitor project, dose response (AID 652040).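 Also: potency for signal decrease marking cytotoxic or nonspecific inhibition.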 Format: functional, cell-based.
A short description of test [4]: inhibitors of HIV Env-driven cell fusion, dose response, cherry-pick (AID 652057). Format: functional, cell-based.
The nature of test [5]: inhibitors of clade B AD8 Env fusion, dose response, cell-based, cherry-pick (AID 652062).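 Also: luciferase signal from cell-cell fusion driven by HIV-1 clade B AD8 Env; potency is for inhibitors of fusion seen as a drop in luminescence.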 Format: functional.
The target in test [6] is Delta-type opioid receptor (Homo sapiens, UniProt P41143). The test is described as follows: Counterscreen for agonists of heterodimerization of the mu 1 (OPRM1) and delta 1 (OPRD1) opioid receptors: Luminescence-based cell-based high throughput dose response assay to identify agonists of OPRD1 homodimerization. [Related pubchem assays (depositor defined):AID504326, AID504355, AID504692, AID504904, AID504905]. It is filed as functional.
Delta-type opioid receptor, sequence (P41143 whole entry): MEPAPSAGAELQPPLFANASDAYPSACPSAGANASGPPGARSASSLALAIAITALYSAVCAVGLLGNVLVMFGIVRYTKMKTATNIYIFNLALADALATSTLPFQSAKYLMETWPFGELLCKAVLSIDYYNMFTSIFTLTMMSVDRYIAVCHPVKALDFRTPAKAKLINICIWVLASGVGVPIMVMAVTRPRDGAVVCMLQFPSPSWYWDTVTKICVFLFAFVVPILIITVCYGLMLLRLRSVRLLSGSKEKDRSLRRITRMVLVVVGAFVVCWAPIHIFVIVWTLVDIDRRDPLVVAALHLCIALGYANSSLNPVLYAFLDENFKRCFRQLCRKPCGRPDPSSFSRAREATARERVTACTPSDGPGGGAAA

In test [7] the target is Mu-type opioid receptor (Homo sapiens, UniProt P35372). The test is described as follows: Counterscreen for agonists of heterodimerization of the mu 1 (OPRM1) and delta 1 (OPRD1) opioid receptors: Luminescence-based cell-based high throughput dose response assay to identify agonists of OPRM1 homodimerization. It is filed as functional.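 Also: U2OS cells expressing OPRM1 and beta-arrestin as split beta-galactosidase partners.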
Mu-type opioid receptor, sequence (P35372 whole entry): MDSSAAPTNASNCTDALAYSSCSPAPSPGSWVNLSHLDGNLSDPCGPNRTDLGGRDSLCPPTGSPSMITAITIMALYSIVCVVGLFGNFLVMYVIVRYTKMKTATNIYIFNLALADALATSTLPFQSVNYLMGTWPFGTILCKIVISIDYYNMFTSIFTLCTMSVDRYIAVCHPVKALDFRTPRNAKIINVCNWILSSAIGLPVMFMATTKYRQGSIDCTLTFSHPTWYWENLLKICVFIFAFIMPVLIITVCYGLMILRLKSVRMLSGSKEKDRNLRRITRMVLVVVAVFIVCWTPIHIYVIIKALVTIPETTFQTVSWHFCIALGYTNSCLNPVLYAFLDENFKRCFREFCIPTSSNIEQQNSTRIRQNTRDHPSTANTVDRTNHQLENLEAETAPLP
The target of test [8] is T1, Short transient receptor potential channel 4 (Mus musculus, UniProt Q9QUQ5).
T1 sequence (Q9QUQ5 whole entry): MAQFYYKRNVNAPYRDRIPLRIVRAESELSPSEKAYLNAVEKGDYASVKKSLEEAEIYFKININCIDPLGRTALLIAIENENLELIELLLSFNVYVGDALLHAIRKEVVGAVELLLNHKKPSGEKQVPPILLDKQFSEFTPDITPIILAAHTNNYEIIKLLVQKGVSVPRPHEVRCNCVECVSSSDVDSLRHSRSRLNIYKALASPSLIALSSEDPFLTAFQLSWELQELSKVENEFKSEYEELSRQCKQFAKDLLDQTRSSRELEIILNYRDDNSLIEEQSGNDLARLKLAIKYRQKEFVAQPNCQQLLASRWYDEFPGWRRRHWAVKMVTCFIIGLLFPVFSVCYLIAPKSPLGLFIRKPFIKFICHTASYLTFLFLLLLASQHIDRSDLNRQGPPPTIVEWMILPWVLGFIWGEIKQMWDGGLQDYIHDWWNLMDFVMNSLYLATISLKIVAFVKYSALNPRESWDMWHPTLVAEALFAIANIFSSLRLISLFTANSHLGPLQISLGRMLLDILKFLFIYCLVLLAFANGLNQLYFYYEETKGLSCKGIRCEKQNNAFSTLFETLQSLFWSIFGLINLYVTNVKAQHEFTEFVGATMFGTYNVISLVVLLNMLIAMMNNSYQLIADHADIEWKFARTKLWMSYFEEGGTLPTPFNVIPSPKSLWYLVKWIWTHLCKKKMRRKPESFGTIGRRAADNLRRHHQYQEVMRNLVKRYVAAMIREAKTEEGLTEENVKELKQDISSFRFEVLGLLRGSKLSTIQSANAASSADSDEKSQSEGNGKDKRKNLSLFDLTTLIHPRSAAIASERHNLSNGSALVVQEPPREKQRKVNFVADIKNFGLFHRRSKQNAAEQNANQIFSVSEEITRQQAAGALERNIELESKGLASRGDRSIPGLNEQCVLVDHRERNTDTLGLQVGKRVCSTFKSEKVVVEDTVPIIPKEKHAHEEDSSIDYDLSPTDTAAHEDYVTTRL
The test is described as follows: mouse TRPC4 channel activators, dose response, cell-based, HEK293 TRPC4/mu-opioid, Fluo-4 calcium (AID 434937). It is filed as functional.

The subject of test [9] is HEK293. The test is described as follows: cells. It is filed as functional, cell-based. Particulars: Homo sapiens.
In test [10] the target is Nucleotide-binding oligomerization domain-containing protein 2 (Homo sapiens, UniProt Q9HC29). The test is described as follows: PubChem AID 2334. Format: functional.
Nucleotide-binding oligomerization domain-containing protein 2, sequence (Q9HC29 whole entry, the tested form may be a part): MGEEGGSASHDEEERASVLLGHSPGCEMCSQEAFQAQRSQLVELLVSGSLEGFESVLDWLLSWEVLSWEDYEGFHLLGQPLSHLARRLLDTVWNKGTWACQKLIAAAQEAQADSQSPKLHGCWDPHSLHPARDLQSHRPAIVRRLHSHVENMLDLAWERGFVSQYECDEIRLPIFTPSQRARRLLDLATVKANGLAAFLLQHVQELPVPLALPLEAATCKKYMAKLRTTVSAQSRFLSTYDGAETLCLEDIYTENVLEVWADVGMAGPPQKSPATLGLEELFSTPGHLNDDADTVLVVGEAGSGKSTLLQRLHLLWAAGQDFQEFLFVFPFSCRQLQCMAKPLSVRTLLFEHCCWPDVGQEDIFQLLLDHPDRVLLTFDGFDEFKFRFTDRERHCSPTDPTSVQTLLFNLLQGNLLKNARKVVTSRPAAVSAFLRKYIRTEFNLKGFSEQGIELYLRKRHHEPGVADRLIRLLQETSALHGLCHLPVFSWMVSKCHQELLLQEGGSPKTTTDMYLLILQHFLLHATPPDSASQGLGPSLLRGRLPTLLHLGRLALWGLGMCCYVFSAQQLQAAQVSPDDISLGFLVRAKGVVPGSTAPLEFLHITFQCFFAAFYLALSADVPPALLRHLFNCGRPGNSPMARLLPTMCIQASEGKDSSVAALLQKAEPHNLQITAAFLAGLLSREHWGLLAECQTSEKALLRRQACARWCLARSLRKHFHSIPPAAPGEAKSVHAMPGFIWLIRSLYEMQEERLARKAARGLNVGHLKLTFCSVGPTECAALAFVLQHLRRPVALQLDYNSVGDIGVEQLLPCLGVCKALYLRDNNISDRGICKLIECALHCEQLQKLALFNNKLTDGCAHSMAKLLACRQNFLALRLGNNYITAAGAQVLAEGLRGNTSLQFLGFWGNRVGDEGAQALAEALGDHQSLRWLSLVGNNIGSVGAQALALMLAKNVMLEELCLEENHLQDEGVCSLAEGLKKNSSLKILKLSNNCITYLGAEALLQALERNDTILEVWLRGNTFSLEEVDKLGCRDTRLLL
The test system of test [11] is HEK293. The test is described as follows: NOD1 signaling inhibitors, primary screen, cell-based, luminescence, uHTS (AID 1578). Particulars: Homo sapiens. It is filed as functional.
Test [12] deals with T2, Microphthalmia-associated transcription factor (Homo sapiens, UniProt O75030).
T2 sequence (O75030 whole entry): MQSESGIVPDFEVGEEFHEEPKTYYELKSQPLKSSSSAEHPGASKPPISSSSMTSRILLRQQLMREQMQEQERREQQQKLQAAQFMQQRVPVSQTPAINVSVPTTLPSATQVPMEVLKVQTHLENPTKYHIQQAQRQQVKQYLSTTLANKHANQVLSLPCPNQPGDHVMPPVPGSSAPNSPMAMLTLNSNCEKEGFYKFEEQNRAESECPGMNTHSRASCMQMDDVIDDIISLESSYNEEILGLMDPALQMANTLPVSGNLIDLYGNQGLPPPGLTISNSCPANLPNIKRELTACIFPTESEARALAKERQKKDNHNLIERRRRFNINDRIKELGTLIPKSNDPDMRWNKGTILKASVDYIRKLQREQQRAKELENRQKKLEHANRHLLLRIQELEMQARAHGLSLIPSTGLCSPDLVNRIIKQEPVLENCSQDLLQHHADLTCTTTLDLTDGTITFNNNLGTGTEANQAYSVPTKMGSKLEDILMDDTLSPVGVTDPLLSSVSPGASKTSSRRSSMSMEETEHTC
The test is described as follows: TRPM1 promoter luciferase signal decrease, dose response, MITF inhibitor project, cell-based, SK-MEL-5, cherry-picked, set 3 (AID 493073).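 Also: SK-MEL-5 melanoma cells with luciferase driven by the MITF target TRPM1 promoter.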 It is filed as functional.

Test [13] relates to HEK293. The test is described as follows: cells. It is filed as functional, cell-based. Particulars: Homo sapiens. This is another data set of the same source.
Test [14] is described as follows: cytotoxicity in HEK-293T cells, dose response, cytotoxicity control for BCR NF-kB inhibitor project, luminescence, B-cell screen hits (AID 489021).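 Also: HEK-293T cells carrying an NF-kB luciferase reporter; cells exposed to compound for about 14 hours before viability readout.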 It is filed as functional, cell-based.
Test [15] concerns HEK293. Description: cytotoxicity in HEK293T NF-kB-Luc cells, SAR follow-up, cytotoxicity control for NF-kB activator project, cell-based, resazurin fluorescence (AID 493251). Particulars: Homo sapiens. Format: functional. In general terms: Alamar Blue is a resazurin reagent that responds to reducing activity.
Test [16] concerns HEK293. The test is described as follows: SAR Analysis of small molecule inhibitors of B-cell specific antigen receptor-induced NF-kB activation in a HEK-293T cell line using a luminescence assay - Set 2. [Related pubchem assays (depositor defined):AID435022, AID435025, AID489021]. Format: functional, cell-based. Conditions: Homo sapiens.
Test [17] relates to Jurkat. The test is described as follows: SAR Analysis of small molecule inhibitors of […] specific antigen receptor-induced NF-kB activation in a Jurkat cell line using a luminescence assay - Set 3. [Related pubchem assays (depositor defined):AID435022, AID435025, AID465]. Format: functional, cell-based. Conditions: Homo sapiens.
The target of test [18] is Nucleotide-binding oligomerization domain-containing protein 1 (Homo sapiens, UniProt Q9Y239). The test is described as follows: NOD1 signaling inhibitors, SAR follow-up, revised (AID 2333). Format: functional.
Nucleotide-binding oligomerization domain-containing protein 1, sequence (Q9Y239 whole entry, the tested form may be a part): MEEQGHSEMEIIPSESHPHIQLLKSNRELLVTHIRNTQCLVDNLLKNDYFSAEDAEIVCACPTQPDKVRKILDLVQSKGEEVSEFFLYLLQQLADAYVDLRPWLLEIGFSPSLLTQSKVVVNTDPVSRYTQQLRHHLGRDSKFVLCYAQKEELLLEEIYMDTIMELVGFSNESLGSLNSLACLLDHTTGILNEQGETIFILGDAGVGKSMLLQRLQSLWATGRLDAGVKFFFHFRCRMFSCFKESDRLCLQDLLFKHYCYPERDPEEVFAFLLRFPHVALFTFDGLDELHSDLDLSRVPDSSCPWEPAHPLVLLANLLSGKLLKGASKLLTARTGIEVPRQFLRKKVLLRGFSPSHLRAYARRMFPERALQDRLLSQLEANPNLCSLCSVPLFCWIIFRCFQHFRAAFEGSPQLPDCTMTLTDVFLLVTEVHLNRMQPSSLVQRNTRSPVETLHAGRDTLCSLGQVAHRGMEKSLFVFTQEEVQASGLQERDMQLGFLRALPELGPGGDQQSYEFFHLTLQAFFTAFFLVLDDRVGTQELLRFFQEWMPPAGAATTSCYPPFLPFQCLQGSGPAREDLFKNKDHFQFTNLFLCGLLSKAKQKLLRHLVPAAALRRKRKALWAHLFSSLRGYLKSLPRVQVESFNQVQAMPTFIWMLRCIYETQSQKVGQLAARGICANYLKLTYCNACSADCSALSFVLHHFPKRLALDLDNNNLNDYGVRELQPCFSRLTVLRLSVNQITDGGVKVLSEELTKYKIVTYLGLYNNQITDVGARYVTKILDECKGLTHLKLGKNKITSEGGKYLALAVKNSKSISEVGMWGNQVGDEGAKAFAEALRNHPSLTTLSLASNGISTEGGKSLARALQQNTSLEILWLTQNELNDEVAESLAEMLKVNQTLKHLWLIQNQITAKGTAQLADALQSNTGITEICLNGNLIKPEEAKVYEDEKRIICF
Test [19] concerns the target Tumor necrosis factor (Homo sapiens, UniProt P01375). The test is described as follows: TNFa-triggered NF-kB activation inhibitors, SAR follow-up, cell-based, revised (AID 2337). Format: functional.
For test [20], the system named is HEK293. The test is described as follows: cells. Conditions: Homo sapiens.
Test [21] deals with HEK293. The test is described as follows: NOD2 signaling inhibitors in MDP-stimulated cells, cell-based, uHTS, luminescence (AID 2001). It is filed as functional. Particulars: Homo sapiens.
In test [22] the target is Hexokinase-1 (Homo sapiens, UniProt P19367). Description: HK1 enzyme inhibition by HKDC1 hits, SAR follow-up, selectivity assay for HKDC1 inhibitor project, biochemical, set 2, resazurin fluorescence coupled readout (AID 588356). It is filed as functional.
Hexokinase-1, sequence (P19367 whole entry): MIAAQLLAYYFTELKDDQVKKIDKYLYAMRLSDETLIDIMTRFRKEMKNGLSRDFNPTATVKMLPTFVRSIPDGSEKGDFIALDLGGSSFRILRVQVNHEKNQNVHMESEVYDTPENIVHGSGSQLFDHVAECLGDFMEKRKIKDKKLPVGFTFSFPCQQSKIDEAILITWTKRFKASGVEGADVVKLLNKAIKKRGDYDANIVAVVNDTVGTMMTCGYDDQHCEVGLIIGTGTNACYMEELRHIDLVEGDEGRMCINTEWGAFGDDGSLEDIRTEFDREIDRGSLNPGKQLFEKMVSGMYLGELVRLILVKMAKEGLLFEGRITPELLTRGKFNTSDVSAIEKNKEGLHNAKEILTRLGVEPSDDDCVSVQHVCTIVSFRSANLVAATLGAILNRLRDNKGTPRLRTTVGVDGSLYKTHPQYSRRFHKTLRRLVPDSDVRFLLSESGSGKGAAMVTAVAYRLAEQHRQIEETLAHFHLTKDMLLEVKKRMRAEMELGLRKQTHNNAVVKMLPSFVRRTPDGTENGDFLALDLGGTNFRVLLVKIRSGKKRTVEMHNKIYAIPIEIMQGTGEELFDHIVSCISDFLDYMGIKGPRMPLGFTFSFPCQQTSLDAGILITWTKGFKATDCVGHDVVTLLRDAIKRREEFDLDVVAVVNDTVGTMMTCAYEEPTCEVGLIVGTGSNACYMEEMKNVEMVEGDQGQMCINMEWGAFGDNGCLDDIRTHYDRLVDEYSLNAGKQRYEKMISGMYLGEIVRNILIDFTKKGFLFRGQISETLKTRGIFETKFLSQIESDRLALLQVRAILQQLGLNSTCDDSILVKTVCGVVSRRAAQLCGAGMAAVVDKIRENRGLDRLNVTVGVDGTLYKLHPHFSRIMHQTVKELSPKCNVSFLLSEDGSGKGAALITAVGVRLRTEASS
Test [23] has as its target T3, Hexokinase HKDC1 (Homo sapiens, UniProt Q2TB90).
T3 sequence (Q2TB90 whole entry): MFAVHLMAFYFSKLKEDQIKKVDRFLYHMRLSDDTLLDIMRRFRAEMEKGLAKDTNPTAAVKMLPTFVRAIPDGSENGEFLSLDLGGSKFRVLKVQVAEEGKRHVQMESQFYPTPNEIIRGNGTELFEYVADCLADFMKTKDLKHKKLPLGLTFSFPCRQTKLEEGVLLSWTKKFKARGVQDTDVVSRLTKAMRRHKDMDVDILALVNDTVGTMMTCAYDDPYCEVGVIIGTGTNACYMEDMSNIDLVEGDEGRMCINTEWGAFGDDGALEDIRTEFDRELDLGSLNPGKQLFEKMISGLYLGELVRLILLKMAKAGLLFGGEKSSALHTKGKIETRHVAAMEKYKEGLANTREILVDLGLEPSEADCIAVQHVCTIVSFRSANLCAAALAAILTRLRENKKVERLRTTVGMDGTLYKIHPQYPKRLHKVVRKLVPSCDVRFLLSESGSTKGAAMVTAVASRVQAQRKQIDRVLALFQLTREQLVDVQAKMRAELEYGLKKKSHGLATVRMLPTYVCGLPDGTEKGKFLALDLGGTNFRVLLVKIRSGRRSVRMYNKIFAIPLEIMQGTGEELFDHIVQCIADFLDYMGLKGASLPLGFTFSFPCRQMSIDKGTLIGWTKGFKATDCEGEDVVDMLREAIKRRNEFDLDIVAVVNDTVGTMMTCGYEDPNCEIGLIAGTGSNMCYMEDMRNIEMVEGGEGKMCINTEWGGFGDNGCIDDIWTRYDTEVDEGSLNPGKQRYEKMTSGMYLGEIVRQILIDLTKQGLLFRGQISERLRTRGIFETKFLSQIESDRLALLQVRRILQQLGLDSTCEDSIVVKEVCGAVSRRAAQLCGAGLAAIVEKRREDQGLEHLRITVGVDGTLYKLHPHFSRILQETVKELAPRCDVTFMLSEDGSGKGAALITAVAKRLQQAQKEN
Description: HKDC1 hexokinase inhibitors, SAR follow-up, biochemical, set 2 (AID 588355). Format: functional.

For test [24], the target named is Disintegrin and metalloproteinase domain-containing protein 17 (Homo sapiens, UniProt P78536). Description: ADAM17 protease inhibitors, dose response, counter-screen for ADAM10 exosite inhibitor project, biochemical, quenched FRET substrate (AID 743253).
Disintegrin and metalloproteinase domain-containing protein 17, sequence (P78536 whole entry, the tested form may be a part): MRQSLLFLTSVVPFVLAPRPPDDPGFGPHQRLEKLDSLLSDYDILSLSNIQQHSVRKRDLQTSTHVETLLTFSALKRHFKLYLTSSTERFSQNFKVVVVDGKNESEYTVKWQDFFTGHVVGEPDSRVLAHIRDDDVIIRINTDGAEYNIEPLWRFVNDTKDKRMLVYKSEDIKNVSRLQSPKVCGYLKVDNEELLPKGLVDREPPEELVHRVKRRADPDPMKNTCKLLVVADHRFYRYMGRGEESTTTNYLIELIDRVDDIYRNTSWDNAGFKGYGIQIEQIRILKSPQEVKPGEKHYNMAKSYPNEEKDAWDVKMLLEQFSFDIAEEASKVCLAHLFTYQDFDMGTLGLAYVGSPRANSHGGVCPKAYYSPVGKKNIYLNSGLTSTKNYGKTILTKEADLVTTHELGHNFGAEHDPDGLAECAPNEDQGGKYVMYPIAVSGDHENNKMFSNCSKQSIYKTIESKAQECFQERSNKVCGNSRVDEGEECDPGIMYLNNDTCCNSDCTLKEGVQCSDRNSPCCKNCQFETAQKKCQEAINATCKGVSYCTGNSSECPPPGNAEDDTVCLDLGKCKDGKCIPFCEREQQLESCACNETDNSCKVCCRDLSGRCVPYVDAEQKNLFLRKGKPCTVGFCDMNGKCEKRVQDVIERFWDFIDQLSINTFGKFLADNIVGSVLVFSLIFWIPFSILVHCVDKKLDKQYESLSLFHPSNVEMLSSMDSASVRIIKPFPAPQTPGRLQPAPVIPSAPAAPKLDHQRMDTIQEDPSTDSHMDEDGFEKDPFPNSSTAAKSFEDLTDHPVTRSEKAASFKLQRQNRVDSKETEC
For test [25], the system named is HEK293. The test is described as follows: cells. Conditions: Homo sapiens. The source holds these as a separate data set.
Test [26] in a line: ADAM10 inhibitors, peptide cleavage, dose response, biochemical, QFRET (AID 743254).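 Also: ADAM10 enzyme with the DM2 quenched FRET peptide as substrate; EDANS fluorescence gain as the protease cuts the substrate; inhibitor potency against ADAM10 proteolytic activity.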
Test [27] concerns HEK293. Description: cells. Conditions: Homo sapiens. The source holds these as a separate data set.

5-hydroxytryptamine receptor 5A, sequence (P47898 whole entry): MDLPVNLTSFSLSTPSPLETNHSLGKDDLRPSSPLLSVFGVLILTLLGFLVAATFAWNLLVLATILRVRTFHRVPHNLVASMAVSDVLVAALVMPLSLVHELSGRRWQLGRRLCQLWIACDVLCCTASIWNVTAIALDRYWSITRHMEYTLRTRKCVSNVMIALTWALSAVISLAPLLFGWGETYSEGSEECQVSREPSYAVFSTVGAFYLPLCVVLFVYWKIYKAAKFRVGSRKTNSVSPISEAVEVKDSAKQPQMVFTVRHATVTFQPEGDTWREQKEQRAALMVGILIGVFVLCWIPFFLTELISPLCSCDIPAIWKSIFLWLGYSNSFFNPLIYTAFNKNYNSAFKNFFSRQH

As usually defined, the AC50 is the concentration at which the activity in the assay is half-maximal. By EC50 is commonly meant the midpoint of the concentration-response curve. For the compound `Cc1ccc(C)c(-n2cc(CNCCCn3cccn3)c(-c3ccccc3)n2)c1`, the AC50 in test [1] was 0.631 µM (active); in [3] it was 1.82 µM (active); in test [4], 1.28 µM (active); in [5], 2.56 µM (active). Moreover, the EC50 in test [2] is > 92.5 µM (inactive); in test [6] it was > 92.5 µM (inactive); in test [7], 10.1 µM (inactive); in [8] it was 1.5 µM (active).

The IC50 is the point on the concentration scale where inhibition reaches its midpoint. Take `CC(C)(C)c1ccc(-c2noc(CCC(=O)NCc3ccco3)n2)cc1`: the IC50 in test [9] was > 20 µM (inactive); in [10] it was 2.16 µM (active); in test [13], > 20 µM (inactive); in [14], > 80 µM (inactive); in test [15] it was 49.2 µM (inactive); in test [16] it was 2.39 µM (active). In addition, the IC50 in [17] was > 80 µM (inactive); in test [18], 3.68 µM (active); in test [19] it was 6.76 µM (active); in test [20] it was > 20 µM (inactive); in test [21], > 20 µM (inactive). For the same compound, the EC50 in test [11] was 8.42 µM (active). Moreover, in test [12], the half-maximal activity concentration (AC50) is 0.122 µM (active).

As for `O=c1c2c(F)cccc2nc(/C=C/c2cccnc2)n1Cc1ccccc1`, the IC50 in test [22] and in [23] was > 80 µM (inactive) each time.

As to `O=S(=O)(NCC(Nc1ccc(Cl)cc1)c1ccccc1)c1ccc(Cl)cc1` (configuration not stated), the IC50 in test [24] is > 69.5 µM (inactive); in test [26], 11.7 µM (inactive). Also, the EC50 in test [25] and in test [27] was > 59.7 µM (inactive) in each case.
